# Laboratory results taken from US6573258B2, “Photodynamic porphyrin antimicrobial agents” (Frontier Scientific, Inc., priority 2000, dated 2003).
# Columns and labels:
# [1] = Fluorescence decay times (phase-shift method); format: physicochemical; conditions: ca. 5 μM, air-equilibrated buffer pH 7.4, λexc = 420 nm, λem > 600 nm; for A1, relative weight of fast component: dihydrochloride salt
# Protocol: Fluorescence decay times of the porphyrin samples were measured by means of a Spex Fluorolog-τ2 spectrofluorimeter based on the phase-shift method. The frequency response curves (phase-shift and demodulation ratio vs. frequency) were globally analyzed.
# E. coli cells [2] = assay: Growth inhibition after 5 min incubation with porphyrin and white-light irradiation; format: cell-based, Escherichia coli; conditions: for concentration photoinducing significant bacteriostatic and bactericidal action: both cell strains (S. aureus and E. coli)
# Protocol: (§1) The abilities of various examples of the porphyrins of the instant invention to kill Gram-negative and Gram-positive bacteria were tested against that of T4MPyP. Each of the compounds was incubated with E. coli and S. aureus cells for 5 minutes, following which the samples were irradiated with white light for varying lengths of time.
# (§2) Escherichia coli strain O4 (wild type), and methycillin-resistant Staphylococcus aureus, strain MRSA 110, were grown aerobically at 37° C. in brain heart infusion broth (BHI, Difco, Detroit, Mich.). The cells in the stationary phase of growth were harvested by centrifugation (2,000 g for 15 min) of the broth cultures, washed twice with 10 mM PBS at pH=7.4, containing 2.7 mM KCl and 0.14 M NaCl, and suspended in PBS at a density of 10^8-10^9 cells/ml (absorbance of about 0.7 at 650 nm). Aliquots of 5 ml of the cell suspension were incubated with 1 μM porphyrins for 5 min in the dark at room temperature. After incubation the suspensions were centrifuged and the cell pellets were collected immediately or washed with PBS and centrifuged again for one or three times.
# (§3) The toxic effects of T4MPyP and its analogues on E. coli and S. aureus cells were evaluated by measuring the extent of growth inhibition (bacteriostatic effect) and reduction of survival (cytocidal/bacteriocidal effect) following treatment with porphyrin in the dark or upon light exposure.
# (§4) In all cases, 5 ml of the cell suspension (10^8-10^9 cells/ml) were incubated for 5 min in the dark at room temperature with the selected photosensitizer at concentrations ranging between 0.5 and 10 μM. After dark-incubation, some of the cell samples were irradiated with white light (150 mW/cm^2). During irradiation, (up to 30 min) the cells were kept at 37° C. and magnetically stirred. The treated and untreated control cells were diluted with BHI and maintained at 37° C. while the absorbance of the suspension at 650 nm was monitored at predetermined time periods for determining growth curves. The percent of growth inhibition in the treated cells was calculated by the following equation: […]
# (§5) where AX, and AC are the absorbances measured after 3 h incubation, respectively, for the treated and control cell suspensions, respectively, while A0 represents the initial absorbance and the AC is that of the control cell suspension after 5 hours incubation. Cell survival was determined by plating serially diluted aliquots of treated and untreated cells on brain heart agar and counting the number of colonies after 18-24 h incubation at 37° C.
# [3] = Triplet state properties by laser flash photolysis; format: physicochemical; conditions: phosphate-buffered solution; for φT, triplet quantum yield: ε920 estimated by total depletion method
# Protocol: Laser flash photolysis experiments were carried out by use of the setup previously described in Gomer, et al., with excitation wavelengths of 355 and 420 nm. Gorner, et al., Photoinduced electron transfer between styrylanthracenes and electron donors and acceptors in acetonitrile, J. Chem. Soc. Faraday Trans., vol. 88, pp. 29-34 (1992).
# The transient spectra of the porphyrins in buffer solutions were recorded upon laser flash photolysis excitation at 355 and 420 nm. […] The decay (growth) of the signal (bleaching) occurred according to first-order kinetics and led to a complete recovery of the ground state with a lifetime of 91 μs. […] This also allowed the triplet quantum yield (φT) to be determined (see Table 3), after calibration of the experimental setup by use of an optically-matched solution of benzophenone in acetonitrile.
# S. aureus cells [4] = assay: Growth inhibition after 5 min incubation with porphyrin and white-light irradiation; format: cell-based, Staphylococcus aureus
# Protocol: as §1, §2, §3
# […] After dark-incubation, some of the cell samples were irradiated with white light (150 mW/cm^2). During irradiation, (up to 30 min) the cells were kept at 37° C. and magnetically stirred. The treated and untreated control cells were diluted with BHI and maintained at 37° C. while the absorbance of the suspension at 650 nm was monitored at predetermined time periods for determining growth curves. The percent of growth inhibition in the treated cells was calculated by the following equation:
# as §5
# S. aureus cells [5] = assay: Dark toxicity of porphyrins on bacteria cells; format: cell-based, Staphylococcus aureus; conditions: 10 μM, 5 min incubation in the dark
# Protocol: as §3, §4, §5
# [6] = Photosensitized photooxidation of NATA; conditions: 10 μM NATA; for ΦSDS × 10^3, quantum yield for photo-oxidation of NATA: aqueous 2% SDS; for ΦPBS × 10^3, quantum yield for photo-oxidation of NATA: phosphate buffered solution
# Protocol: The photosensitizing activity of the various porphyrins was tested by measuring their efficiency in promoting the photooxidation of N-acetyl-L-tryptophanamide (NATA, Aldrich Chem. Co.) as a model biological substrate. Toward this aim, 10 μM NATA in PBS or in water containing 2% SDS was irradiated in the presence of 5 μM porphyrin. The irradiations were performed with 515±10 nm-light isolated by means of an interference filter (Balzers, Liechtenstein), while the solution (2 ml) was magnetically stirred in a quartz cuvette of 1-cm optical path and kept at 25° C. The photosensitized modification of NATA was followed by measuring the decrease in the intensity of its fluorescence emission spectrum (300-450 nm) upon excitation with 290 nm-light at various irradiation times. Plots of in F°/F (where F° and F represent the fluorescence intensity at time 0 and t, respectively) vs. the irradiation time allowed the first-order rate constants of the photo-process to be derived.
# The intensity of the incident light was measured by using Aberchrome 999P in toluene as an actinometer. Heller, EPA Newslett., 29:49-60 (1987). This parameter was used to calculate the quantum yields of NATA photooxidation sensitized by the different porphyrins.
# [7] = Fluorescence quantum yields; format: physicochemical; conditions: for ΦF (PBS), fluorescence quantum yield: in PBS; for ΦF (SDS), fluorescence quantum yield: in aqueous 2% SDS
# Protocol: Ground-state absorption spectra of the porphyrins (ca. 5 μM in phosphate buffered saline (PBS, pH=7.4) were recorded with a Lambda 5 Perkin-Elmer spectrophotometer. Fluorescence spectra, corrected for the instrumental response, were recorded with a Perkin-Elmer (model LS) or a Spex (Fluorolog F112) spectrofluorimeter. Fluorescence quantum yields ((IF) of the porphyrin derivatives in PBS and in water containing 2% sodium dodecylsulfate (a detergent, hereinafter “SDS”) were determined by measuring the area of the emission spectrum (600-800 nm range, excitation at 560 nm) and using tetra-n-propylporphycene in toluene as a reference (ΦF=0.38). Braslavsky et al, J. Photochem. Photobiol. B: Biol., 40:191-198 (1997). In all cases, the absorbance of the sample and the reference solution were kept below 0.1 at the excitation wavelength to minimize inner filter effects.
# E. coli cells [8] = assay: Decrease of cell survival (colony counting) after white-light irradiation; format: cell-based, Escherichia coli; conditions: 1 μM porphyrin; for DECREASE OF SURVIVAL (log): 5 min dark incubation, 15 min white light (150 mW/cm^2)
# Protocol: as §2, §3, §4, §5
# E. coli cells [9] = assay: Dark toxicity of porphyrins on bacteria cells; format: cell-based, Escherichia coli; conditions: 10 μM, 5 min incubation in the dark
# Protocol: as §3, §4, §5
# [10] = 0.5 μM, incubated 5 min, white light 5 min
# [11] = 0.5 μM, incubated 5 min, white light 10 min
# [12] = Table 5: 0.5 μM, 5 min incubation, 5 min white light (150 mW/cm^2)
# [13] = Table 5: 1 μM, 5 min incubation, 5 min white light (150 mW/cm^2)
SMILES,"A2, relative weight of slow component [1]","τ1, fluorescence decay time of fast component [1]","τ2, fluorescence decay time of slow component [1]","A1, relative weight of fast component [1]",Growth inhibition (%) E. coli (E. coli cells [2]; [10]),Growth inhibition (%) E. coli (E. coli cells [2]; [11]),Growth inhibition (%) E. coli (E. coli cells [2]; [12]),concentration photoinducing significant bacteriostatic and bactericidal action (E. coli cells [2]),λmax of transient spectrum [3],λmin of transient spectrum [3],φ×ε920 [3],"τ^N2, triplet lifetime [3]","τ^air, triplet lifetime [3]","φT, triplet quantum yield [3]",Growth inhibition (%) S. aureus (S. aureus cells [4]; [10]),Growth inhibition (%) S. aureus (S. aureus cells [4]; [11]),Growth inhibition (%) S. aureus (S. aureus cells [4]; [12]),inhibition of bacterial cell growth in the dark (S. aureus cells [5]),"ΦSDS × 10^3, quantum yield for photo-oxidation of NATA [6]","ΦPBS × 10^3, quantum yield for photo-oxidation of NATA [6]",further results
"CCCCCCCCCCCCCC[n+]1ccc(-c2c3nc(c(-c4cc[n+](C)cc4)c4ccc([nH]4)c(-c4cc[n+](C)cc4)c4nc(c(-c5cc[n+](C)cc5)c5ccc2[nH]5)C=C4)C=C3)cc1.Cl.Cl.[Cl-].[Cl-].[Cl-].[Cl-] [Porphyrin C14, 5-(4-N-tetradecylpyridyl)-10,15,20-tris(4-N-methylpyridyl)-21H,23H-porphine tetrachloride dihydrochloride salt]",98%,1.0 ns,6.5 ns,2%,81.8%,100%,82%,ten-fold lower concentration,480 nm,425 nm,9762 M⁻¹ cm⁻¹,70 μs,20 μs,0.48,72.7%,88.9%,73%,complete inhibition,0.71 ± 0.03,0.66 ± 0.10,"ΦF (PBS), fluorescence quantum yield [7]: 0.019; ΦF (SDS), fluorescence quantum yield [7]: 0.022; DECREASE OF SURVIVAL (log) (E. coli cells [8]): −4.35 ± 0.45 log; drop in survival of E. coli cells (E. coli cells [8]; 15 min irradiation): 4 log; inhibition of bacterial cell growth in the dark (E. coli cells [9]): complete inhibition"
"CCCCCCCCCCCCCCCCCC[n+]1ccc(-c2c3nc(c(-c4cc[n+](C)cc4)c4ccc([nH]4)c(-c4cc[n+](C)cc4)c4nc(c(-c5cc[n+](C)cc5)c5ccc2[nH]5)C=C4)C=C3)cc1.Cl.Cl.[Cl-].[Cl-].[Cl-].[Cl-] [Porphyrin C18, 5-(4-N-octadecylpyridyl)-10,15,20-tris(4-N-methylpyridyl)-21H,23H-porphine tetrachloride dihydrochloride salt]",97%,1.4 ns,9.0 ns,3%,26%,56.6%,26%,ten-fold lower concentration,470 nm,420 nm,2700 M⁻¹ cm⁻¹,74 μs,21 μs,0.17,41.4%,58.1%,42%,complete inhibition,0.80 ± 0.04,0.14 ± 0.01,"Growth inhibition (%) E. coli (E. coli cells [2]; 1 μM, incubated 5 min, white light 5 min): 57.9%; Growth inhibition (%) E. coli (E. coli cells [2]; 1 μM, incubated 5 min, white light 10 min): 95.7%; Growth inhibition (%) E. coli (E. coli cells [2]; [13]): 58%; Growth inhibition (%) S. aureus (S. aureus cells [4]; 0.1 μM, incubated 5 min, white light 5 min): 12.7%; Growth inhibition (%) S. aureus (S. aureus cells [4]; 0.1 μM, incubated 5 min, white light 10 min): 20.2%; Growth inhibition (%) S. aureus (S. aureus cells [4]; [13]): 59%; ΦF (PBS), fluorescence quantum yield [7]: 0.022; ΦF (SDS), fluorescence quantum yield [7]: 0.024; DECREASE OF SURVIVAL (log) (E. coli cells [8]): −2.78 ± 0.62 log; inhibition of bacterial cell growth in the dark (E. coli cells [9]): complete inhibition"
"C[n+]1ccc(-c2c3nc(c(-c4cc[n+](C)cc4)c4ccc([nH]4)c(-c4cc[n+](Cc5ccccc5)cc4)c4nc(c(-c5cc[n+](C)cc5)c5ccc2[nH]5)C=C4)C=C3)cc1.Cl.Cl.[Cl-].[Cl-].[Cl-].[Cl-] [mono-benzyl, 5-(4-N-benzylpyridyl)-10,15,20-tris(4-N-methylpyridyl)-21H,23H-porphine tetrachloride dihydrochloride salt]",–,–,–,–,–,–,–,–,–,–,–,–,–,–,–,–,–,–,–,–,"Growth inhibition (%) E. coli (E. coli cells [2]; 10 μM, incubated 5 min, white light 5 min): 54.1%; Growth inhibition (%) E. coli (E. coli cells [2]; 10 μM, incubated 5 min, white light 10 min): 100%; photodynamic effectiveness relative to base porphyrin (E. coli cells [2]; same conditions as base porphyrin): about twice as effective as the base porphyrin"
